Assay results: patent US8981112B2, “Inhibitors of β-secretase” (Boehringer Ingelheim International GmbH, priority 2012, dated 2015)

What was measured:
[1] = molecular target: truncated human beta-secretase, BACE1 (amino acids 1-454) (Homo sapiens (Human), UniProt P56817); assay: BACE1 Assay (Assay 1), fluorescence quench assay; format: biochemical; details: read-out: BACE1 IC50 nM (assay 1)
Procedure: The substrate was dissolved at 1 mg/ml in DMSO.
The assay was performed in the presence of OptiMEM (supernatant collected over 24 h and cleared from cellular debris by centrifugation) containing the ectodomain of BACE1, 25 μl water containing the desired 2-fold concentration of test compound and 2% DMSO, 1 μM substrate peptide, 20 mM NaOAc, pH 4.4, and 0.04% Triton-X100 in a total assay volume of 50 μl in a 384 well plate. In general, 25 μl of compound dilution were given to the plate followed by the addition of 10 μl of BACE1 containing OptiMEM™ diluted 1:10 in water with 0.2% Triton X-100. The reaction was started with the addition of 15 μl substrate in NaOAc buffer. The reaction was incubated at rt (dark) in an Envision® multilabel reader (Perkin Elmer) and the cleavage of the substrate was recorded as kinetic for 60 min at ex: 485 nm, em: 538 nm. Blank wells containing no enzyme were included on each plate.
The intensity of fluorescence was regressed against time in order to derive velocities of reaction in all 384 wells. These velocities were used for calculating percent control using an uninhibited control containing 1% DMSO as 100% and blank control performed in the absence of enzyme as 0%. IC50 values were calculated by fitting percent control vs. test compound concentration using Assay Explorer.

[2] = test system: brain amyloid peptides Aβ1-x; assay: Rat Brain Aβ Lowering Assay (Assay 5); format: in vivo; details: 3 hrs after dosing
Procedure: Rat Brain Aβ Lowering Assay (Assay 5)
The animals were sacrificed 3 hrs after dosing, and brains were excised, dissected into cerebellum and left and right cerebra and flash-frozen in liquid nitrogen.
The cerebrum was homogenized (5 volumes per weight) in 20 mM Tris-HCL, pH 8.5, 0.2% Triton-X100 supplemented with protease inhibitors (complete, Roche Applied Science) at 4° C. using a glass Dounce homogenizer. The homogenate was centrifuged at 120,000×g for 60 min at 4° C., and the supernatant was collected and analyzed for Ab1-x using immunoassay with chemiluminescent detection (Meso-Scale Discovery, Rockville, Md. (MSD)).
Streptavidin 96-well plates (MSD) were pre-blocked with 5% Blocker A solution (MSD) for 1 hr at rt on an orbital shaker and washed 4 times with phosphate buffered saline (PBS). The wells were pre-coated with 20 ng/well of biotinylated antibody SIG-39155 (Clone M3.2, specific for amino acids 10-15 of the rodent Aβ) for 1 hr at rt and washed 4 times with PBS. For Aβ1-x analysis, 25 μl of either the cleared brain lysates or Aβ1-40 standards (8-500 pg/ml, with 2× increment) were incubated for 1 hr at rt with constant shaking. The wells were washed 4 times with PBS, and 25 μl of the detection antibody (Sulfo-TAG labeled anti-Aβ40 antibody supplied by MSD) was added and incubated for 1 hr at rt. After 4 washes with PBS, 150 μl of the chemiluminescence detection reagent (Read Buffer T, MSD) was added, and the plate was read on an MSD Sector Imager 6000 instrument. The calibration curve was fit into a non-linear four-parameter regression model, and the Aβ1-x concentrations were calculated for each well containing the cleared brain lysates. The percent of Aβ lowering was calculated based on the difference with the average Aβ concentration obtained for the brains from the animals treated with vehicle alone.

[3] = molecular target: hERG (Homo sapiens (Human), UniProt Q12809); assay: hERG-Channel Assay (Assay 3), whole-cell patch clamp; format: cell-based; details: human, HEK293 cells stably transfected with hERG, pH 7.4; 10 μM, HEK293 cells transfected with hERG
Description: hERG-Channel Assay (Assay 3)
HEK (human embryonic kidney) 293 cells were stably transfected with hERG cDNA.
Cells were superfused with a bath solution containing (mM): NaCl (137), KCl (4.0), MgCl2 (1.0), CaCl2 (1.8), Glucose (10), HEPES (10), pH 7.4 with NaOH. Patch pipettes were made from borosilicate glass tubing using a horizontal puller and filled with pipette solution containing (mM): K-aspartate (130), MgCl2 (5.0), EGTA (5.0), K2ATP (4.0), HEPES (10.0), pH 7.2 with KOH. Resistance of the microelectrodes was in the range between 2 and 5 MΩ.
Membrane currents were recorded using an EPC-10 patch clamp amplifier and PatchMaster software. hERG-mediated membrane currents were recorded at 35° C., using the whole-cell configuration of the patch-clamp technique. Transfected HEK293 cells were clamped at a holding potential of −60 mV and hERG-mediated inactivating tail currents were elicited using a pulse pattern with fixed amplitudes (activation/inactivation: 40 mV for 2000 ms; recovery: −120 mV for 2 ms; ramp to 40 mV in 2 ms; inactivating tail current: 40 mV for 50 ms) repeated at 15 s intervals. During each inter-pulse interval 4 pulses scaled down by a factor of 0.2 were recorded for a P/n leak subtraction procedure. Rs compensation was employed up to a level that safely allowed recording devoid of ringing.
The different concentrations of the test compound were applied sequentially on each of the different cells investigated. A steady state level of baseline current was measured for at least 6 sweeps prior to the application of the first test compound concentration.
The test compound was dissolved in DMSO to yield a master stock solution which was diluted further in DMSO to stock solutions needed for the lower concentrations. Final dilutions in extracellular buffer were prepared freshly from these stocks by a 1:1000 dilution step each before starting the experiments.
Peak current amplitudes were measured 3 ms after the ramp to +40 mV. For baseline and each concentration the peak currents of the three last sweeps before application of the next concentration were averaged. Residual currents (I/I0) were calculated for each cell as the fraction of actual average peak current and average baseline peak current. Results are presented as percent (%) inhibition (1−I/I0)*100% at 10 μM.

Sequence of truncated human beta-secretase, BACE1 (amino acids 1-454) (P56817 22-454): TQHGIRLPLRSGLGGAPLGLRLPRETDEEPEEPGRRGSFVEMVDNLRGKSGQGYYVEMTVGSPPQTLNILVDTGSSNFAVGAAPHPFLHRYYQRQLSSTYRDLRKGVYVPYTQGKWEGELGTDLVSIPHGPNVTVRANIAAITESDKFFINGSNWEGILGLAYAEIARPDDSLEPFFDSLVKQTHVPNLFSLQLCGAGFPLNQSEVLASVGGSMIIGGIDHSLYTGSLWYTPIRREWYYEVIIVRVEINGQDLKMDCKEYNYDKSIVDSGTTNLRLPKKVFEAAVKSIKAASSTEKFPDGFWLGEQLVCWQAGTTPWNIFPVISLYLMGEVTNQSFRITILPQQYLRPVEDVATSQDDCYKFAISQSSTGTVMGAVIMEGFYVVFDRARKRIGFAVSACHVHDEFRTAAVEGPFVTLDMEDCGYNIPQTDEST
Sequence of hERG (Q12809 whole entry): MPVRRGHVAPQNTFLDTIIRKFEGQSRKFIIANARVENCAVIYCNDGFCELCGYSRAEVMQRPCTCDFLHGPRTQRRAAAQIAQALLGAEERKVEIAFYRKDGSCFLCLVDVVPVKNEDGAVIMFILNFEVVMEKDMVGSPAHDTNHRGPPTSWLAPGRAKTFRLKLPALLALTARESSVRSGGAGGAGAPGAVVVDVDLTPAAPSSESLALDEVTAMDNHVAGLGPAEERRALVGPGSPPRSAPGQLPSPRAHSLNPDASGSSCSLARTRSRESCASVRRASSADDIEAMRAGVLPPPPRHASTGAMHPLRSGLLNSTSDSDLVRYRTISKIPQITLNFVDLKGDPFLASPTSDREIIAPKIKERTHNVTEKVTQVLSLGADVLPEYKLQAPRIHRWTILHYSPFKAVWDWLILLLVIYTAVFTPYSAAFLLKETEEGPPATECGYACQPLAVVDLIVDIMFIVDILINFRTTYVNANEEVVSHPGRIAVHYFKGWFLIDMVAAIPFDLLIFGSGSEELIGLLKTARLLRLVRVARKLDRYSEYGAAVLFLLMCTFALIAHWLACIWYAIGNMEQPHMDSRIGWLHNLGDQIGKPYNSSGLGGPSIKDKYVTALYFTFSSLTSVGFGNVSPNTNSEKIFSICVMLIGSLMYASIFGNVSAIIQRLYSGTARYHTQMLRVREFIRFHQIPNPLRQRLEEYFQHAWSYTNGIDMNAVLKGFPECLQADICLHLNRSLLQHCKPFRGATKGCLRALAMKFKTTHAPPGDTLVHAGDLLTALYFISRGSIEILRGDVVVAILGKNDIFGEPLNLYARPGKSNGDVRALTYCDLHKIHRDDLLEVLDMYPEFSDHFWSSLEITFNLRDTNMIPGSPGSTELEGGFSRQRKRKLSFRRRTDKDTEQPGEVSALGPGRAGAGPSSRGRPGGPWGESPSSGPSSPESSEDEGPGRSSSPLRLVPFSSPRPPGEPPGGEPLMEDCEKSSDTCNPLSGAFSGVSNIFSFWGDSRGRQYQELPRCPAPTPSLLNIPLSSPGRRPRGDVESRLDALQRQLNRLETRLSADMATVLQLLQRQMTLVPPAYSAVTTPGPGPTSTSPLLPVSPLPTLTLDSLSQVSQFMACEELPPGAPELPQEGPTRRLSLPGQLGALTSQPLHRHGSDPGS

SMILES	IC50 [1]	% Aβ Reduction ([2]; single oral dose 25 mg/kg)	inhibition at 10 µM [3]	% Aβ Reduction ([2]; single oral dose 30 mg/kg)	% Aβ Reduction ([2]; single oral dose 50 mg/kg)	% Aβ Reduction ([2]; single oral dose 12.5 mg/kg)
CC[C@@H]1C[C@]2(CC[C@H]1OC)Cc1ccc(C#N)cc1[C@]21N=C(N)N(CC2CCOCC2)C1=O [Example 2]	8 nM		22%	42%		
CC[C@@H]1C[C@]2(CC[C@H]1OC)Cc1ccc(C#N)cc1[C@]21N=C(N)N(CC2(F)CCOCC2)C1=O [Example 4]	5 nM	75%	0%			
CO[C@H]1CC[C@@]2(Cc3ccc(C#N)cc3[C@]23N=C(N)N(CC2(C)COC2)C3=O)C[C@@H]1C [Example 8]	5 nM	37%	16%			
CO[C@H]1CC[C@@]2(Cc3ccc(C#N)cc3[C@]23N=C(N)N(Cc2ccncn2)C3=O)C[C@@H]1C [Example 9]	9 nM	37%	16%			
CO[C@H]1[C@H](C)C[C@@]2(Cc3ccc(C#N)cc3[C@]23N=C(N)N(C2COC2)C3=O)C[C@@H]1C [Example 12]	3 nM	39%	11%			
CO[C@H]1[C@H](C)C[C@@]2(Cc3ccc(C#N)cc3[C@]23N=C(N)N(CC2COC2)C3=O)C[C@@H]1C [Example 13]	9 nM		18%	47%		
CO[C@H]1[C@H](C)C[C@@]2(Cc3ccc(C#N)cc3[C@]23N=C(N)N(C[C@H]2CCCO2)C3=O)C[C@@H]1C [Example 14]	5 nM	67%	20%			
CO[C@H]1[C@H](C)C[C@@]2(Cc3ccc(C#N)cc3[C@]23N=C(N)N(C[C@@H]2CCCO2)C3=O)C[C@@H]1C [Example 15]	11 nM	62%	11%			
CO[C@H]1[C@H](C)C[C@@]2(Cc3ccc(C#N)cc3[C@]23N=C(N)N(CC(C)(C)F)C3=O)C[C@@H]1C [Example 17]	14 nM	70%	12%			

Further lines, with some results ahead:

IC50 [1]	SMILES	% Aβ Reduction ([2]; single oral dose 25 mg/kg)	inhibition at 10 µM [3]	% Aβ Reduction ([2]; single oral dose 30 mg/kg)	% Aβ Reduction ([2]; single oral dose 50 mg/kg)	% Aβ Reduction ([2]; single oral dose 12.5 mg/kg)
9 nM	CO[C@H]1[C@H](C)C[C@@]2(Cc3ccc(C#N)cc3[C@]23N=C(N)N(C[C@@H]2CCO2)C3=O)C[C@@H]1C (stereo in doubt) [Example 18]	56%	17%			
5 nM	CO[C@H]1[C@H](C)C[C@@]2(Cc3ccc(C#N)cc3[C@]23N=C(N)N(C[C@@H]2COCCO2)C3=O)C[C@@H]1C [Example 21]		24%		59%	
8 nM	CO[C@H]1[C@H](C)C[C@@]2(Cc3ccc(C#N)cc3[C@]23N=C(N)N(C[C@H]2COCCO2)C3=O)C[C@@H]1C [Example 22]		9%			45%
12 nM	CO[C@H]1[C@H](C)C[C@@]2(Cc3ccc(C#N)cc3[C@]23N=C(N)N(CC2(F)CCOCC2)C3=O)C[C@@H]1C [Example 23]	68%	16%			
9 nM	CC[C@@H]1C[C@@]2(Cc3ccc(C#N)cc3[C@]23N=C(N)N(CC(C)(C)F)C3=O)C[C@H](C)[C@H]1OC [Example 26]	71%	8%			
